# Assays:
# [1] = test system: Porcine atria myofibrils (atrial myosin ATPase); experiment: Myofibril ATPase assay, porcine atria myofibrils; assay type: biochemical; conditions: porcine atria myofibrils; Y75 value (75% activity relative to no compound)
# Procedure, shortened: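 Coupled PK-LDH readout, NADH loss at 340 nm, kinetic 75 min. Porcine atria myofibrils, pCa buffer (PIPES/CaCl2/EGTA, pH 7.0). Slopes (mAU/min) normalized to vehicle = 100%, 4-parameter fit; Y75 or Y125 reported.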
# [2] = molecular target: T1, Porcine ventricle myofibrils (ventricular myosin ATPase) (Sus scrofa, UniProt P79293); experiment: Myofibril ATPase assay, porcine ventricle myofibrils; assay type: biochemical, porcine (Yucatan minipigs); conditions: porcine ventricle myofibrils; Y75 value
# T1 construct: Myofibrils from porcine cardiac muscle was isolated from the left ventricle of Yucatan minipigs; tissue Exemplar Genetics; host or cells: left ventricle of Yucatan minipigs, myofibrils prepared in house
# T1 sequence (P79293 whole entry): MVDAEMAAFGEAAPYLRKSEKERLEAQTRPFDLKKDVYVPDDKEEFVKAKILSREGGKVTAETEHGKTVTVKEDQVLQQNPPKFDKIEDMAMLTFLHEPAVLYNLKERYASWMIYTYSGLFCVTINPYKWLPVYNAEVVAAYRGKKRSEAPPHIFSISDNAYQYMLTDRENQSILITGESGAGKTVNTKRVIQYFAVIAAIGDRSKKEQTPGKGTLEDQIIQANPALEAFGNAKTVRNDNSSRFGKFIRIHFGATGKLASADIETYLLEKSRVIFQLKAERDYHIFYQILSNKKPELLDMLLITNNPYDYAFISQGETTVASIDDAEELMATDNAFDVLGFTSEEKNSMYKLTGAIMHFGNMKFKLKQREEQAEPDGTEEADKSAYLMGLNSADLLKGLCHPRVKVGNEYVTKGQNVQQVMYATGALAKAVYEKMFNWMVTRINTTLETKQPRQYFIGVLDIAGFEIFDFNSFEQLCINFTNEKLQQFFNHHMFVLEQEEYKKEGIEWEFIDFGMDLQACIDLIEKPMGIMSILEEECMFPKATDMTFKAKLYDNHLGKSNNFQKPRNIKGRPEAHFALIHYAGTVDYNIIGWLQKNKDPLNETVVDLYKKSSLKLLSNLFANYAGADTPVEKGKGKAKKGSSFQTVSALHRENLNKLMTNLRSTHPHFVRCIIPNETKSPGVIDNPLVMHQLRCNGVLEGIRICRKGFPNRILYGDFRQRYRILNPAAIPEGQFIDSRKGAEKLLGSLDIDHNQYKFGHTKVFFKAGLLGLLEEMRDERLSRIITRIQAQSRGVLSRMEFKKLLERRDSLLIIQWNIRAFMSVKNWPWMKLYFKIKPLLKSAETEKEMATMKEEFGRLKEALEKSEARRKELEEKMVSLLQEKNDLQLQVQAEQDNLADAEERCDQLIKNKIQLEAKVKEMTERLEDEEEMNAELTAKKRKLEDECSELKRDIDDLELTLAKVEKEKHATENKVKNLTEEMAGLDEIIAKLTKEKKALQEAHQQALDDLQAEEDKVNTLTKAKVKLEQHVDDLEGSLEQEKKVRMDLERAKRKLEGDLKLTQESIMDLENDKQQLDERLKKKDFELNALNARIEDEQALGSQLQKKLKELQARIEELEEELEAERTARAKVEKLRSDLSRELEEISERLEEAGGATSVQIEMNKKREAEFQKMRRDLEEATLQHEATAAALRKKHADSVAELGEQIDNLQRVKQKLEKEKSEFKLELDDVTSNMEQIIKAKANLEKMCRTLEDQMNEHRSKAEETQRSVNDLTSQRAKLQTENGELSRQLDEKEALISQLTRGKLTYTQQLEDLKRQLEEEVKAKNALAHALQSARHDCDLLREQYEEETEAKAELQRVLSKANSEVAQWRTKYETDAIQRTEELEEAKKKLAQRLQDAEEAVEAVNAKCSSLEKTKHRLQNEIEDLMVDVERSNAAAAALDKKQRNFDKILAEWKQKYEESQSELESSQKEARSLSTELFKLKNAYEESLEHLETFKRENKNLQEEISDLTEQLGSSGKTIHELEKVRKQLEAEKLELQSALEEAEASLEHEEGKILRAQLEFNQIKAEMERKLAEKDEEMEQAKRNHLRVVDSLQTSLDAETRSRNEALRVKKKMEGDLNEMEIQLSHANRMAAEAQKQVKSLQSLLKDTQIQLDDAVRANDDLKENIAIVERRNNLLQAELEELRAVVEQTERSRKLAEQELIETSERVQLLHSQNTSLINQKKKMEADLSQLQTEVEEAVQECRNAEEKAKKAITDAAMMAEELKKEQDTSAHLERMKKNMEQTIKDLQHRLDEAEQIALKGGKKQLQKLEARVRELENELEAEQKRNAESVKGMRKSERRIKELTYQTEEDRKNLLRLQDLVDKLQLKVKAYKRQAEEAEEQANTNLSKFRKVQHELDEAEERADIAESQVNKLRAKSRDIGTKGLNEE
# Procedure, shortened: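 Myofibrils isolated from Yucatan minipig left ventricle; coupled PK/LDH NADH assay, pCa buffer pH 7.0, kinetic A340 reads over 75 min. Vehicle-normalized slopes fit 4PL; Y75/Y125 derived.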
# [3] = test system: Rabbit Psoas myofibrils (skeletal myosin ATPase); experiment: Myofibril ATPase assay, rabbit psoas (skeletal) myofibrils; assay type: biochemical; conditions: rabbit psoas myofibrils; Y75 value
# Procedure, shortened: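 Readout: A340 decline from NADH oxidation, PK/LDH-coupled to ADP release; kinetic reads over 75 min. Buffer: pCa (PIPES, CaCl2, EGTA), pH 7.0. Linear-regression slopes vs vehicle, 4PL fit; reported as concentration giving 75% (Y75) or 125% (Y125) of vehicle activity.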
Compound,Atrial EC25 [1] [µM],Ventricular EC25 [2] [µM],Skeletal EC25 [3] [µM]
C[C@H](NC(=O)Cc1c(C(F)(F)F)c2c(C3CC3)nccc2[nH]c1=O)c1ccc(F)cc1F [compound 421],100.00,100.00,0.20
CCOc1nccc2[nH]c(=O)c(CC(=O)N[C@@H](C)c3ccc(F)cc3F)c(C(F)(F)F)c12 [compound 422],100.00,100.00,0.03
COc1nccc2[nH]c(=O)c(CC(=O)N[C@@H](C)c3ccc(F)cc3F)c(C(F)(F)F)c12 [compound 423],100.00,100.00,0.34
C[C@H](NC(=O)Cc1c(C(F)(F)F)c2c(Cl)nccc2[nH]c1=O)c1ccc(F)cc1F [compound 428],1.35,1.94,0.09
Cc1nccc2[nH]c(=O)c(CC(=O)N[C@@H](C)c3ccc(F)cc3F)c(C(F)(F)F)c12 [compound 430],0.38,11.63,0.25
C#Cc1nccc2[nH]c(=O)c(CC(=O)N[C@@H](C)c3ccc(F)cc3F)cc12 [compound 431],11.13,50.88,0.80
C[C@H](NC(=O)Cc1cc2c(C3CC3)nccc2[nH]c1=O)c1ccc(F)cc1F [compound 432],16.07,80.53,0.47
Cc1nccc2[nH]c(=O)c(CC(=O)N[C@@H](C)c3ccc(F)cc3F)c(C)c12 [compound 433],0.15,0.64,0.03
COc1nccc2[nH]c(=O)c(CC(=O)N[C@@H](C)c3ccc(F)cc3F)cc12 [compound 434],0.65,3.84,0.13
C[C@H](NC(=O)Cc1cc2c(C(F)(F)F)nccc2[nH]c1=O)c1ccc(F)cc1F [compound 435],32.52,19.10,0.38
C[C@H](NC(=O)Cc1cc2c(OCC(F)(F)F)nccc2[nH]c1=O)c1ccc(F)cc1F [compound 436],100.00,100.00,12.92
CCc1nccc2[nH]c(=O)c(CC(=O)N[C@@H](C)c3ccc(F)cc3F)cc12 [compound 437],91.43,100.00,1.28
C[C@H](NC(=O)Cc1c(C(F)F)c2cnccc2[nH]c1=O)c1ccc(F)cc1F [compound 438],2.35,7.68,0.60
C[C@H](NC(=O)Cc1cc2c(Cl)nccc2[nH]c1=O)c1ccc(F)cc1F [compound 439],0.06,0.47,0.10
Cc1c(C(C)C(=O)N[C@@H](C)c2ccc(F)cc2F)c(=O)[nH]c2ccncc12 (stereo partly drawn) [compound 440],34.65,100.00,2.78
C[C@H](NC(=O)Cc1cc2cnccc2[nH]c1=O)c1ccc(F)cc1F [compound 441],3.48,100.00,1.88
C[C@H](NC(=O)Cc1c(C2CC2)c2cnccc2[nH]c1=O)c1ccc(F)cc1F [compound 444],1.14,20.82,0.17
Cc1nccc2[nH]c(=O)c(CC(=O)N[C@@H](C)c3ccc(F)cc3F)cc12 [compound 445],2.32,20.53,0.43

# Now from value to compound:
Atrial EC25 [1] [µM],Ventricular EC25 [2] [µM],Skeletal EC25 [3] [µM],Compound
100.00,100.00,4.59,Cc1cc2[nH]c(=O)c(CC(=O)N[C@@H](C)c3ccc(F)cc3F)c(C)c2cn1 [compound 446]
0.25,10.16,0.05,C[C@H](NC(=O)Cc1c(C(F)(F)F)c2cnccc2[nH]c1=O)c1ccc(F)cc1F [compound 447]
0.65,7.29,0.17,Cc1c(CC(=O)N[C@@H](C)c2ccc(F)cc2F)c(=O)[nH]c2ccncc12 [compound 448]
100.00,100.00,100.00,Cc1c(CC(=O)N[C@H](C)c2ccc(C#N)cn2)c(=O)[nH]c2ccc(OC(F)(F)F)nc12 [compound 449]
100.00,100.00,100.00,Cc1c(CC(=O)N[C@@H](C)c2ccc(C#N)cn2)c(=O)[nH]c2ccc(OC(F)(F)F)nc12 [compound 450]
100.00,100.00,100.00,Cc1nncc2[nH]c(=O)c(CC(=O)N[C@H](C)c3ncc(C#N)cc3F)cc12 [compound 451]
63.47,100.00,100.00,Cc1nncc2[nH]c(=O)c(CC(=O)N[C@@H](C)c3ncc(C#N)cc3F)cc12 [compound 452]
8.79,100.00,9.12,C[C@@H](NC(=O)Cc1c(Cl)c2cnccc2[nH]c1=O)c1ccc(C#N)cn1 [compound 453]
7.21,52.30,4.25,C[C@H](NC(=O)Cc1c(Cl)c2cnccc2[nH]c1=O)c1ccc(C#N)cn1 [compound 454]
7.11,100.00,5.74,Cc1c(CC(=O)N[C@H](C)c2ncc(C#N)cc2F)c(=O)[nH]c2ccc(OC(F)(F)F)nc12 [compound 455]
0.66,3.69,0.53,Cc1c(CC(=O)N[C@@H](C)c2ncc(C#N)cc2F)c(=O)[nH]c2ccc(OC(F)(F)F)nc12 [compound 456]
30.66,100.00,100.00,Cc1c(CC(=O)N[C@H](C)c2cnc(C#N)nc2)c(=O)[nH]c2ccc(C(F)(F)F)nc12 [compound 457]
0.79,100.00,10.51,Cc1c(CC(=O)N[C@@H](C)c2cnc(C#N)nc2)c(=O)[nH]c2ccc(C(F)(F)F)nc12 [compound 458]
3.13,100.00,100.00,Cc1c(CC(=O)N[C@H](C)c2ccc(C#N)cn2)c(=O)[nH]c2ccc(C(F)(F)F)nc12 [compound 459]
1.53,30.78,100.00,Cc1c(CC(=O)N[C@@H](C)c2ccc(C#N)cn2)c(=O)[nH]c2ccc(C(F)(F)F)nc12 [compound 460]
94.45,15.98,100.00,Cc1ncc(C#N)nc1C(C)NC(=O)Cc1c(C)c2c(C)nccc2[nH]c1=O (stereo not drawn) [compound 461]
65.72,100.00,100.00,Cc1ccc2[nH]c(=O)c(CC(=O)N[C@H](C)c3ncc(C#N)cc3F)cc2n1 [compound 462]
4.39,26.99,9.72,Cc1ccc2[nH]c(=O)c(CC(=O)N[C@@H](C)c3ncc(C#N)cc3F)cc2n1 [compound 463]
0.37,0.18,0.03,Cc1nc(C#N)ncc1[C@@H](C)NC(=O)Cc1c(C)c2c(C)nccc2[nH]c1=O [compound 464]
100.00,100.00,47.72,Cc1nc(C#N)ncc1[C@H](C)NC(=O)Cc1c(C)c2c(C)nccc2[nH]c1=O [compound 465]
100.00,100.00,100.00,Cc1c(CC(=O)N[C@H](C)c2ccc(C#N)cn2)c(=O)[nH]c2ccncc12 [compound 466]
100.00,100.00,16.00,Cc1c(CC(=O)N[C@@H](C)c2ccc(C#N)cn2)c(=O)[nH]c2ccncc12 [compound 467]
0.80,1.48,4.03,Cc1ccc2[nH]c(=O)c(CC(=O)N[C@H](C)c3ncc(C#N)cc3F)c(C)c2n1 [compound 468]
0.15,1.66,0.55,Cc1ccc2[nH]c(=O)c(CC(=O)N[C@@H](C)c3ncc(C#N)cc3F)c(C)c2n1 [compound 469]
100.00,100.00,9.89,Cc1cc([C@@H](C)NC(=O)Cc2cc3c(C#N)nccc3[nH]c2=O)ncc1F [compound 470]

# From patent US12448369B2 (Edgewise Therapeutics, Inc., priority 2023, dated 2025)
